Assay results from patent US20230088214A1, “GLYCOLATE OXIDASE INHIBITORS FOR THE TREATMENT OF DISEASE” (BIOMARIN PHARMACEUTICAL INC., priority 2019, published 2023).

target: T1, GO (Homo sapiens, UniProt Q9UJM8); assay: GO Enzymatic Assay (Assay 1); format: biochemical; set-up: purchased Novus Biologicals NBP1-72412; conditions: Table 4; class symbols without asterisk, GO Enzymatic Assay (Assay 1); read-out: Range
T1 sequence (Q9UJM8 1-370): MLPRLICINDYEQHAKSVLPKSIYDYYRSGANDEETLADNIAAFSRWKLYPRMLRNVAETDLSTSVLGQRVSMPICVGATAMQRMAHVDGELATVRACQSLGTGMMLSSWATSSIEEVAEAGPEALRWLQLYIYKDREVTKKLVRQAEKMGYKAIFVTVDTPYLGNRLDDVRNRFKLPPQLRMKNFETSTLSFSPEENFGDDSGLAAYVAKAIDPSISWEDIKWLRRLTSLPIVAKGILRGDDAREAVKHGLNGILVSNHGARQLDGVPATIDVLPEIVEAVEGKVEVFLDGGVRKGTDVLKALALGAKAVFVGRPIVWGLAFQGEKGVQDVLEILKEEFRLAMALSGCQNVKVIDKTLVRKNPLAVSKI
Protocol: Assay 1: GO Enzymatic Assay
GO was incubated with its substrate, glycolate, in 50 mM potassium phosphate buffer, pH 7. […] The enzyme was optimized and the kinetics was determined.
Compound inhibition was determined by adding various concentrations of inhibitors in the GO enzyme assay. The IC50 value for each measured compound was generated from sigmoidal dose-response (variable slope) curves with GraphPad Prism software (GraphPad Software, Inc., San Diego, Calif.) using the percent inhibition of GO activity relative to DMSO control.

`O=C(O)c1[nH]nnc1Sc1ccc(-c2ccc(N3CCCCC3)c(Cl)c2)cc1` [Compound 376, 4-((3′-chloro-4′-(piperidin-1-yl)-[1,1′-biphenyl]-4-yl)thio)-1H-1,2,3-triazole-5-carboxylic acid 2,2,2-trifluoroacetate] and `O=C(O)c1[nH]nnc1Sc1ccc(-c2ccc(Cl)cc2)c(OCC2CCCC2)c1` [Compound 398, 4-((4′-chloro-2-(cyclopentylmethoxy)-[1,1′-biphenyl]-4-yl)thio)-1H-1,2,3-triazole-5-carboxylic acid 2,2,2-trifluoroacetate] cannot be ordered by IC50: < 100 nM for the first, < 100 nM for the second.

`O=C(O)c1[nH]nnc1CS[C@H]1CC[C@@H](c2cc(Cl)cc(Cl)c2)CC1` [Compound 377, 4-((((cis)-4-(3,5-dichlorophenyl)cyclohexyl)thio)methyl)-1H-1,2,3-triazole-5-carboxylic acid] and `O=C(O)c1[nH]nnc1CSC1CCN(c2cc(Cl)ccc2Cl)CC1` [Compound 383, 4-(((1-(2,5-dichlorophenyl)piperidin-4-yl)thio)methyl)-1H-1,2,3-triazole-5-carboxylic acid 2,2,2-trifluoroacetate] cannot be ordered by IC50: < 100 nM for the first, < 100 nM for the second.

`O=C(O)c1[nH]nnc1O[C@H]1CC[C@@H](c2ccc(N3CCCCC3=O)cc2)CC1` [Compound 379, 4-(((cis)-4-(4-(2-oxopiperidin-1-yl)phenyl)cyclohexyl)oxy)-1H-1,2,3-triazole-5-carboxylic acid] and `O=C(O)c1[nH]nnc1O[C@H]1CC[C@H](c2ccc(-n3cnnc3)cc2)CC1` [Compound 403, 4-(((trans)-4-(4-(4H-1,2,4-triazol-4-yl)phenyl)cyclohexyl)oxy)-1H-1,2,3-triazole-5-carboxylic acid] cannot be ordered by IC50: < 100 nM for the first, < 100 nM for the second.

`O=C(O)c1[nH]nnc1Oc1cccc(OC2CCCCC2)c1` [Compound 380, 4-(3-(cyclohexyloxy)phenoxy)-1H-1,2,3-triazole-5-carboxylic acid 2,2,2-trifluoroacetate] and `O=C(O)c1[nH]nnc1Oc1ccc(Cl)c(OC2CCCCC2)c1` [Compound 399, 4-(4-chloro-3-(cyclohexyloxy)phenoxy)-1H-1,2,3-triazole-5-carboxylic acid 2,2,2-trifluoroacetate] cannot be ordered by IC50: < 100 nM for the first, < 100 nM for the second.

`O=C(O)c1[nH]nnc1Oc1ccc(Cl)c(OC2CCCC2)c1` [Compound 381, 4-(4-chloro-3-(cyclopentyloxy)phenoxy)-1H-1,2,3-triazole-5-carboxylic acid 2,2,2-trifluoroacetate] and `O=C(O)c1[nH]nnc1Oc1ccc(-c2ccc(Cl)cc2)c(OCC2CCCC2)c1` [Compound 387, 4-((4′-chloro-2-(cyclopentylmethoxy)-[1,1′-biphenyl]-4-yl)oxy)-1H-1,2,3-triazole-5-carboxylic acid 2,2,2-trifluoroacetate] cannot be ordered by IC50: < 100 nM for the first, < 100 nM for the second.

First: O=C(O)c1[nH]nnc1Sc1cccc(OC2CCCCC2)c1 [Compound 382, 4-((3-(cyclohexyloxy)phenyl)thio)-1H-1,2,3-triazole-5-carboxylic acid 2,2,2-trifluoroacetate]
Second: O=C(O)c1[nH]nnc1Oc1ccc(C2CCN(C3CCCCC3)CC2)cc1 [Compound 388, 4-(4-(1-cyclohexylpiperidin-4-yl)phenoxy)-1H-1,2,3-triazole-5-carboxylic acid 2,2,2-trifluoroacetate]
The IC50 of the first is lower: 100 to 1000 nM for the first, 1000 to 10000 nM for the second.

`O=C(O)c1[nH]nnc1CSC1CCN(c2ccc(Cl)c(Cl)c2)CC1` [Compound 384, 4-(((1-(3,4-dichlorophenyl)piperidin-4-yl)thio)methyl)-1H-1,2,3-triazole-5-carboxylic acid 2,2,2-trifluoroacetate] and `O=C(O)c1[nH]nnc1SC1CCN(c2cc(Cl)ccc2OC(F)(F)F)CC1` [Compound 386, 4-((1-(5-chloro-2-(trifluoromethoxy)phenyl)piperidin-4-yl)thio)-1H-1,2,3-triazole-5-carboxylic acid 2,2,2-trifluoroacetate] cannot be ordered by IC50: < 100 nM for the first, < 100 nM for the second.

`N#Cc1ccc(Oc2nn[nH]c2C(=O)O)cc1OCc1ccc(F)cc1` [Compound 390, 4-(4-cyano-3-((4-fluorobenzyl)oxy)phenoxy)-1H-1,2,3-triazole-5-carboxylic acid] and `N#Cc1ccc(-c2ccc(Oc3nn[nH]c3C(=O)O)cc2Cl)cc1` [Compound 394, 4-((2-chloro-4′-cyano-[1,1′-biphenyl]-4-yl)oxy)-1H-1,2,3-triazole-5-carboxylic acid] cannot be ordered by IC50: < 100 nM for the first, < 100 nM for the second.

`O=C(O)c1[nH]nnc1O[C@H]1CC[C@H](c2cc(OC(F)(F)F)ccc2Cl)CC1` [Compound 395, 4-(((trans)-4-(2-chloro-5-(trifluoromethoxy)phenyl)cyclohexyl)oxy)-1H-1,2,3-triazole-5-carboxylic acid] and `O=C(O)c1[nH]nnc1O[C@H]1CC[C@@H](c2cc(OC(F)(F)F)ccc2Cl)CC1` [Compound 396, 4-(((cis)-4-(2-chloro-5-(trifluoromethoxy)phenyl)cyclohexyl)oxy)-1H-1,2,3-triazole-5-carboxylic acid] cannot be ordered by IC50: < 100 nM for the first, < 100 nM for the second.

`NC(=O)c1ccc(-c2ccc(Oc3nn[nH]c3C(=O)O)cc2)cc1` [Compound 397, 4-((4′-carbamoyl-[1,1′-biphenyl]-4-yl)oxy)-1H-1,2,3-triazole-5-carboxylic acid] and `N#Cc1ccc([C@H]2C[C@H](Oc3nn[nH]c3C(=O)O)C2)cc1` [Compound 404, 4-((trans)-3-(4-cyanophenyl)cyclobutoxy)-1H-1,2,3-triazole-5-carboxylic acid 2,2,2-trifluoroacetate] cannot be ordered by IC50: < 100 nM for the first, < 100 nM for the second.

`O=C(O)c1[nH]nnc1O[C@H]1CC[C@H](c2ccc(-n3cncn3)cc2)CC1` [Compound 405, 4-(((trans)-4-(4-(1H-1,2,4-triazol-1-yl)phenyl)cyclohexyl)oxy)-1H-1,2,3-triazole-5-carboxylic acid] and `O=C(O)c1[nH]nnc1O[C@H]1CC[C@H](c2ccc3ncccc3c2)CC1` [Compound 409, 4-(((trans)-4-(quinolin-6-yl)cyclohexyl)oxy)-1H-1,2,3-triazole-5-carboxylic acid 2,2,2-trifluoroacetate] cannot be ordered by IC50: < 100 nM for the first, < 100 nM for the second.

`O=C(O)c1[nH]nnc1S[C@H]1CC[C@H](c2ccc3ncccc3c2)CC1` [Compound 410, 4-(((trans)-4-(quinolin-6-yl)cyclohexyl)thio)-1H-1,2,3-triazole-5-carboxylic acid 2,2,2-trifluoroacetate] and `O=C(O)c1[nH]nnc1S[C@H]1CC[C@H](c2cc(OC(F)(F)F)ccc2Cl)CC1` [Compound 411, 4-(((trans)-4-(2-chloro-5-(trifluoromethoxy)phenyl)cyclohexyl)thio)-1H-1,2,3-triazole-5-carboxylic acid] cannot be ordered by IC50: < 100 nM for the first, < 100 nM for the second.

same assay, conditions: human GO, glycolate substrate, pH 7, percent inhibition relative to DMSO control; read-out: Range of IC50 values calculated from the enzymatic assays (Assay 1)

Compared with `C[N+](C)(C)CCOC(=O)c1[nH]nnc1Sc1ccc(-c2ccc(OC(F)(F)F)cc2)cc1` [Compound 38, N,N,N-trimethyl-2-((4-((4′-(trifluoromethoxy)-[1,1′-biphenyl]-4-yl)thio)-1H-1,2,3-triazole-5-carbonyl)oxy)ethan-1-aminium iodide], `O=C(O)c1[nH]nnc1O[C@H]1CC[C@H](c2ccc(OC(F)(F)F)cc2)CC1` [Compound 272-1, 4-(((trans)-4-(4-(trifluoromethoxy)phenyl)cyclohexyl)oxy)-1H-1,2,3-triazole-5-carboxylic acid] is lower in IC50: 1000 to 10000 nM for the first, < 100 nM for the second.

With `O=C(O)c1[nH]nnc1O[C@H]1CC[C@@H](c2ccc(OC(F)(F)F)cc2)CC1` [Compound 272-2, 4-(((cis)-4-(4-(trifluoromethoxy)phenyl)cyclohexyl)oxy)-1H-1,2,3-triazole-5-carboxylic acid] the IC50 was < 100 nM.
